Results on 59 molecules are retold here after patent US7504400B2, “MTP inhibiting aryl piperydines or piperazines substituted with 5-membered heterocycles” (Janssen Pharmaceutica N.V., priority 2004, dated 2009).

Each structure is given as a SMILES string. Where a name gives a salt, the structure may show the parent alone.

The test system of the first data set is Secretion of ApoB. Kind of data set: Quantification of the secretion of ApoB in HepG2 cells. To be noted: Homo sapiens, HepG2, 24 h, 24 hours of incubation with test compound, immunoprecipitation of apoB from medium, read-out: pIC50 value (=-log IC50 value), secretion of ApoB (converted). Type of data set: cell-based. The method in brief: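 At 70% confluency, HepG2 cells in MEM with 10% FCS received compound or DMSO carrier (0.4% final) for 24 h. Secreted apoB in cleared medium immunoprecipitated with sheep anti-apoB then rabbit anti-sheep antibody (24 h each, 8° C); pellet radioactivity counted by liquid scintillation; IC50 expressed as pIC50.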
For `CC(C)n1ncn(-c2ccc(N3CCN(C(C(=O)Nc4ccc5c(c4)CCN(C(=O)OC(C)(C)C)C5)c4ccccc4)CC3)cc2)c1=O` (centres unmarked) [Compound 305], the IC50 is 31.6 to 316 nM.
For the molecule `CC(C)n1ncn(-c2ccc(N3CCN(C(C(=O)Nc4ccc5c(c4)CC(NC(=O)OC(C)(C)C)C5)c4ccccc4)CC3)cc2)c1=O` (centres unmarked) [Compound 306], the IC50 was below 31.6 nM.
Still for that read-out and setting: as for `COC(=O)C(c1ccc(C)cc1)N1CCN(c2ccc(-n3cnn(C(C)c4ccccc4)c3=O)cc2)CC1` (centres unmarked) [Compound 318], the figure is 316 to 3160 nM; as for `COC(=O)C(c1ccccc1Cl)N1CCC(c2ccc(-n3cnn(C(C)C)c3=O)cc2)CC1` (centres unmarked) [Compound 319], 31.6 to 316 nM; as for `COC(=O)C(c1cccc(Cl)c1)N1CCC(c2ccc(-n3cnn(C(C)C)c3=O)cc2)CC1` (centres unmarked) [Compound 320], 316 to 3160 nM.
Turning to `COC(=O)C(c1ccc(Cl)cc1)N1CCC(c2ccc(-n3cnn(C(C)C)c3=O)cc2)CC1` (centres unmarked) [Compound 321], the IC50 was 316 to 3160 nM.
For the molecule `COC(=O)C(c1ccc(Cl)cc1Cl)N1CCC(c2ccc(-n3cnn(C(C)C)c3=O)cc2)CC1` (centres unmarked) [Compound 322], the IC50 is 31.6 to 316 nM.
On to `COC(=O)C(c1ccc(Br)cc1)N1CCC(c2ccc(-n3cnn(C(C)C)c3=O)cc2)CC1` (centres unmarked) [Compound 323], for which the IC50 was 316 to 3160 nM.
As to `COC(=O)C(c1ccc(C)cc1)N1CCC(c2ccc(-n3cnn(C(C)C)c3=O)cc2)CC1` (centres unmarked) [Compound 324], the IC50 is 316 to 3160 nM.
The same measure, in the same setting: as for `COC(=O)C(c1ccccc1Cl)N1CCN(c2ccc(-n3cnn(C(C)C)c3=O)cc2)CC1` (centres unmarked) [Compound 325], the figure is 31.6 to 316 nM.
With `COC(=O)C(c1cccc(Cl)c1)N1CCN(c2ccc(-n3cnn(C(C)C)c3=O)cc2)CC1` (centres unmarked) [Compound 326], the IC50 is 316 to 3160 nM.
The same measure, in the same setting: as for `COC(=O)C(c1ccc(Cl)cc1)N1CCN(c2ccc(-n3cnn(C(C)C)c3=O)cc2)CC1` (centres unmarked) [Compound 327], the figure is 316 to 3160 nM; as for `COC(=O)C(c1ccc(Cl)cc1Cl)N1CCN(c2ccc(-n3cnn(C(C)C)c3=O)cc2)CC1` (centres unmarked) [Compound 328], 31.6 to 316 nM.
For the molecule `COC(=O)C(c1ccc(Br)cc1)N1CCN(c2ccc(-n3cnn(C(C)C)c3=O)cc2)CC1` (centres unmarked) [Compound 329], the IC50 was 316 to 3160 nM.
On the same count and under the same terms, the same measure for `COC(=O)C(c1ccc(C)cc1)N1CCN(c2ccc(-n3cnn(C(C)C)c3=O)cc2)CC1` (centres unmarked) [Compound 330]: 316 to 3160 nM; for `CCOC(=O)C(c1ccccc1)N1CCN(c2ccc(-n3ccn(C(C)c4cccc(F)c4F)c3=O)cc2)CC1` (centres unmarked) [Compound 332]: 31.6 to 316 nM.
The same measure, in the same setting: as for `CCOC(=O)C(c1ccccc1)N1CCN(c2ccc(-n3ccn(C(C)c4cc(F)ccc4F)c3=O)cc2)CC1` (centres unmarked) [Compound 334], the figure is 31.6 to 316 nM; as for `CCOC(=O)C(c1ccccc1)N1CCN(c2ccc(-n3nc4cccc(C)n4c3=O)cc2)CC1` (centres unmarked) [Compound 347], 316 to 3160 nM; as for `CCOC(=O)c1cc(NC(=O)C(c2ccccc2)N2CCC(c3ccc(-n4cnn(C(C)C)c4=O)cc3)CC2)ccc1C` (centres unmarked) [Compound 349], below 31.6 nM.
On the same count and under the same terms, the same measure for `CCOC(=O)C(c1ccccc1)N1CCN(c2ccc(-n3cnn(C(C)c4ccccc4F)c3=O)cc2)CC1` (centres unmarked) [Compound 350]: 31.6 to 316 nM.
As to `CCOC(=O)CC(NC(=O)C(c1ccccc1)N1CCC(c2ccc(-n3cnn(C(C)C)c3=O)cc2)CC1)c1ccc2c(c1)OCO2` (centres unmarked) [Compound 351], the IC50 was 316 to 3160 nM.
The same measure, in the same setting: the same measure for `COC(=O)CCc1csc(NC(=O)C(c2ccccc2)N2CCC(c3ccc(-n4cnn(C(C)C)c4=O)cc3)CC2)n1` (centres unmarked) [Compound 352]: 316 to 3160 nM; for `COC(=O)c1[nH]c2ccc(C)cc2c1NC(=O)C(c1ccccc1)N1CCC(c2ccc(-n3cnn(C(C)C)c3=O)cc2)CC1` (centres unmarked) [Compound 353]: 31.6 to 316 nM.
Same read-out and setting: the same measure for `COC(=O)c1ccc2nc(NC(=O)C(c3ccccc3)N3CCC(c4ccc(-n5cnn(C(C)C)c5=O)cc4)CC3)sc2c1` (centres unmarked) [Compound 354]: 316 to 3160 nM.
Still for that read-out and setting: as for `CCOC(=O)c1csc(NC(=O)C(c2ccccc2)N2CCN(c3ccc(-n4cnn(C(C)C)c4=O)cc3)CC2)n1` (centres unmarked) [Compound 357], the figure is 316 to 3160 nM.
`CCOC(=O)CC(NC(=O)C(c1ccccc1)N1CCN(c2ccc(-n3ccn(C(C)C)c3=O)cc2)CC1)c1ccc2c(c1)OCO2` (centres unmarked) [Compound 358]: the IC50 was 316 to 3160 nM.
`CCOC(=O)CC(NC(=O)C(c1ccccc1)N1CCN(c2ccc(N3CCN(C(C)C)C3=O)cc2)CC1)c1ccc2c(c1)OCO2` (centres unmarked) [Compound 359]: the IC50 is 316 to 3160 nM.
The same measure, in the same setting: the same measure for `CCOC(=O)c1cc(NC(=O)C(c2ccccc2)C2CCN(c3ccc(-n4cnn(C(C)c5ccccc5)c4=O)cc3)CC2)ccc1C` (centres unmarked) [Compound 369]: 31.6 to 316 nM; for `CCOC(=O)c1cc(NC(=O)C(c2ccccc2)C2CCN(c3ccc(-n4cnn(C(C)C)c4=O)cc3)CC2)ccc1C` (centres unmarked) [Compound 370]: 31.6 to 316 nM; for `CCOC(=O)c1cc(NC(=O)CC2CCN(c3ccc(-n4cnn(C(C)c5ccccc5)c4=O)cc3)CC2)ccc1C` (centres unmarked) [Compound 371]: 31.6 to 316 nM.
For `CCOC(=O)c1cc(NC(=O)CC2CCN(c3ccc(-n4cnn(C(C)C)c4=O)cc3)CC2)ccc1C` [Compound 372], the half-maximal inhibitory concentration (IC50) is 316 to 3160 nM.
For `CCOC(=O)c1cc(NC(=O)C(Cc2ccccc2)C2CCN(c3ccc(-n4cnn(C(C)c5ccccc5)c4=O)cc3)CC2)ccc1C` (centres unmarked) [Compound 373], the concentration for half-maximal inhibition (IC50) is 316 to 3160 nM.
Still for that read-out and setting: the same measure for `CCOC(=O)c1cc(NC(=O)C(Cc2ccccc2)C2CCN(c3ccc(-n4cnn(C(C)C)c4=O)cc3)CC2)ccc1C` (centres unmarked) [Compound 374]: 316 to 3160 nM; for `CCOC(=O)c1ccc(CNC(=O)C(c2ccccc2)C2CCN(c3ccc(-n4cnn(C(C)c5ccccc5)c4=O)cc3)CC2)cc1C` (centres unmarked) [Compound 375]: 31.6 to 316 nM; for `CCOC(=O)c1ccc(CNC(=O)C(c2ccccc2)C2CCN(c3ccc(-n4cnn(C(C)C)c4=O)cc3)CC2)cc1C` (centres unmarked) [Compound 376]: 31.6 to 316 nM.
Same read-out and setting: as for `CCOC(=O)c1ccc(CNC(=O)CC2CCN(c3ccc(-n4cnn(C(C)c5ccccc5)c4=O)cc3)CC2)cc1C` (centres unmarked) [Compound 377], the figure is 31.6 to 316 nM; as for `CCOC(=O)c1ccc(CNC(=O)CC2CCN(c3ccc(-n4cnn(C(C)C)c4=O)cc3)CC2)cc1C` [Compound 378], 31.6 to 316 nM; as for `CCOC(=O)c1ccc(CNC(=O)C(Cc2ccccc2)C2CCN(c3ccc(-n4cnn(C(C)c5ccccc5)c4=O)cc3)CC2)cc1C` (centres unmarked) [Compound 379], 316 to 3160 nM.
The same measure, in the same setting: the same measure for `CCOC(=O)c1ccc(CNC(=O)C(Cc2ccccc2)C2CCN(c3ccc(-n4cnn(C(C)C)c4=O)cc3)CC2)cc1C` (centres unmarked) [Compound 380]: 316 to 3160 nM; for `CCOC(=O)c1cc(CNC(=O)C(c2ccccc2)C2CCN(c3ccc(-n4cnn(C(C)c5ccccc5)c4=O)cc3)CC2)ccc1C` (centres unmarked) [Compound 381]: below 31.6 nM; for `CCOC(=O)c1cc(CNC(=O)CC2CCN(c3ccc(-n4cnn(C(C)C)c4=O)cc3)CC2)ccc1C` [Compound 382]: 31.6 to 316 nM.
With `CCOC(=O)c1cc(CNC(=O)C(Cc2ccccc2)C2CCN(c3ccc(-n4cnn(C(C)c5ccccc5)c4=O)cc3)CC2)ccc1C` (centres unmarked) [Compound 383], the IC50 is 316 to 3160 nM.
Turning to `CCOC(=O)c1cc(CNC(=O)C(Cc2ccccc2)C2CCN(c3ccc(-n4cnn(C(C)C)c4=O)cc3)CC2)ccc1C` (centres unmarked) [Compound 384], the IC50 is 316 to 3160 nM.
Same read-out and setting: as for `CCOC(=O)CC1CCN(c2ccc(-n3cnn(C(C)C)c3=O)cc2)CC1` [Compound 385], the figure is 316 to 3160 nM; as for `CCOC(=O)CC1CCN(c2ccc(-n3cnn(C(C)c4ccccc4)c3=O)cc2)CC1` (centres unmarked) [Compound 386], 316 to 3160 nM; as for `CCOC(=O)[C@@H](C)NC(=O)CC1CCN(c2ccc(-n3cnn(C(C)c4ccccc4)c3=O)cc2)CC1` (some centres unmarked) [Compound 391], 316 to 3160 nM.
For the molecule `CCOC(=O)[C@@H](NC(=O)CC1CCN(c2ccc(-n3cnn(C(C)c4ccccc4)c3=O)cc2)CC1)C(C)C` (some centres unmarked) [Compound 392], the IC50 was 316 to 3160 nM.
Same read-out and setting: as for `CCOC(=O)[C@H](NC(=O)CC1CCN(c2ccc(-n3cnn(C(C)c4ccccc4)c3=O)cc2)CC1)C(C)C` (some centres unmarked) [Compound 393], the figure is 31.6 to 316 nM; as for `CCOC(=O)[C@H](NC(=O)CC1CCN(c2ccc(-n3cnn(C(C)c4ccccc4)c3=O)cc2)CC1)c1ccccc1` (some centres unmarked) [Compound 394], 31.6 to 316 nM.
Same read-out and setting: as for `CCOC(=O)[C@@H](NC(=O)CC1CCN(c2ccc(-n3cnn(C(C)c4ccccc4)c3=O)cc2)CC1)c1ccccc1` (some centres unmarked) [Compound 395], the figure is 316 to 3160 nM.
On to `CCOC(=O)[C@@H](Cc1ccccc1)NC(=O)CC1CCN(c2ccc(-n3cnn(C(C)c4ccccc4)c3=O)cc2)CC1` (some centres unmarked) [Compound 396], for which the IC50 was 316 to 3160 nM.
On the same count and under the same terms, the same measure for `CCOC(=O)CC[C@H](NC(=O)CC1CCN(c2ccc(-n3cnn(C(C)c4ccccc4)c3=O)cc2)CC1)C(=O)OCC` (some centres unmarked) [Compound 397]: 316 to 3160 nM; for `CCOC(=O)[C@H](CC(C)C)NC(=O)CC1CCN(c2ccc(-n3cnn(C(C)c4ccccc4)c3=O)cc2)CC1` (some centres unmarked) [Compound 398]: 316 to 3160 nM; for `COC(=O)C(NC(=O)CC1CCN(c2ccc(-n3cnn(C(C)c4ccccc4)c3=O)cc2)CC1)C(C)C` (centres unmarked) [Compound 401]: 316 to 3160 nM.
Still for that read-out and setting: as for `CCOC(=O)CCNC(=O)CC1CCN(c2ccc(-n3cnn(C(C)c4ccccc4)c3=O)cc2)CC1` (centres unmarked) [Compound 402], the figure is 316 to 3160 nM.
On the same count and under the same terms, the same measure for `CCOC(=O)C(C)NC(=O)CC1CCN(c2ccc(-n3cnn(C(C)c4ccccc4)c3=O)cc2)CC1` (centres unmarked) [Compound 403]: 316 to 3160 nM; for `CCOC(=O)CC(NC(=O)CC1CCN(c2ccc(-n3cnn(C(C)c4ccccc4)c3=O)cc2)CC1)c1ccc2c(c1)OCO2` (centres unmarked) [Compound 404]: 316 to 3160 nM.

System in another data set: not given
Assay: not given
Details: not given
With `CCCN(CCC)C(=O)C(CCN1CCN(c2ccc(-n3cnn(C(C)C)c3=O)cc2)CC1)c1ccccc1` (centres unmarked) (as salt: salt) [Compound 2], the melting point was determined as 165 °C.
Molecule `CCOC(=O)C(c1cccnc1)N1CCN(c2ccc(-n3cnn(C(C)C)c3=O)cc2)CC1` (centres unmarked) [Compound 302] showed a melting point of 142 to 143 °C.
